Read-outs that look alike come from different tables or passages of the source.
Tests used:
S. aureus BAA44 [1] = experiment: Acute infection of osteoblastic MG63 cells without lysostaphin, CFU per well of intracellular and adhered bacteria; type: cell-based, Staphylococcus aureus; conditions: for effect on CFU per well of intracellular and adhered S. aureus BAA44: 18 h, FIG. 6
Experimental: (§1) Osteoblastic MG63 cells were detached with the cell detachment medium Accutase 24 hours before infection. The cell number was determined using the Neubauer counting chamber. Cells were seeded onto uncoated 24 well plates with a cell density of 1.5×10^4 cells/cm^2 in 1 ml DMEM (Dulbecco's Modified Eagle's Medium) with 10% FCS (fetal calf serum), 1% Glutamax-I and 1% Natrium Pyruvat and incubated at 37° C. and 5% CO2.
The cell culture supernatant of the osteoblastic MG63 cells was removed with a pipette from the wells. 1 ml containing 1×10^6 S. aureus BAA44 CFU was added to each well containing also antibiotics having the following compositions: • 50 μg/ml vancomycin • 2.5 μg/ml rifampin • 1.25-10 μg/ml daptomycin • and their mixtures in different ratios as given below.
The combined osteoblastic cells, bacteria, and antibiotic compositions were incubated for 18 h at 37° C. under 5% CO2 atmosphere.
Afterwards the cells were washed once with PBS pH 7.4 (phosphate buffer solution) followed by lysis with 1 ml 0.1% Triton X100 in ringer's solution. The lysates were thoroughly resuspended with a pipette. Only one 24 well plate was handled and the other plates were stored at 4° C. in order to minimize bacterial growth in the lysate.
(§2) The lower the CFU value is the lower is the infection rate of the osteoblastic cells with S. aureus BAA44. This correlates to the efficacy of the added antibiotic.

S. aureus ATTC 6538P [2] = conditions: 200 μg/cm^2 vancomycin, FIG. 5a
Experimental: An overnight culture of S. aureus ATTC 6538P was prepared by infecting 5 ml Caso-Bouillon medium with S. aureus ATTC 6538P. The cultures were incubated with shaking (450 U/min) over night at 37° C. 100 μl of the overnight cultures were transferred into 5 ml Caso Boulillon medium and incubated for 2 h at 37° C. with shaking (450 U/min). The bacterial density was determined photometrically. The bacterial suspension was diluted 1:2 in Caso Bouillon prior measurement. A bacterial suspension with a density of 1×10^5 CFU/ml in Caso Boullion with 10% FCS was used for the adhesion experiments.
After coating the titanium discs were washed either one time or three times with PBS. The coated and uncoated titanium discs were incubated for 5 min at room temperature with 5 ml PBS. This was repeated two more times. In the third circle the titanium discs were incubated for 1 h at room temperature. Before removing the PBS solution the titanium discs were turned or swiveled in order to increase the detachment of the antibiotics. Afterwards the titanium discs were transferred into sterile 12 well plates. […]
Afterwards the bacterial suspension was removed and the discs were washed three times with 2.5 ml PBS. […] The agar plates were incubated over night at 37° C. and the next day the colonies were counted.

S. aureus BAA44 [3] = experiment: Adhesion of bacteria on coated titanium discs, CFU per disc; type: cell-based, Staphylococcus aureus; conditions: 1.5 h, 200 μg/cm^2 vancomycin or 50 μg/cm^2 rifampin + 200 μg/cm^2 fosfomycin calcium, FIG. 5c
Experimental: The experimental set up was essentially the same as described above for S. aureus ATTC 6538P.
The coated titanium discs were washed either once or twice with 5 ml PBS before incubation with S. aureus BAA44 for 1.5 h.

[4] = test system: S. aureus ATTC 6538P in osteoblastic MG63 cells; experiment: Intracellular infection of osteoblastic MG63 cells after lysostaphin, metabolic activity (MTT, absorbance 540 nm); conditions: 24 h
S. aureus BAA44 [5] = experiment: Bactericidal activity of coated titanium discs in Minimal Medium, CFU in supernatant and on discs; type: cell-based, Staphylococcus aureus; conditions: 15.5 h in Minimal Medium, discs washed three times
Experimental: The bacterial density was determined photometrically.
The Minimal Medium was used instead of Caso Bouillon to minimize the bacterial growth.
Afterwards the CFU in the supernatant as well as the adhered bacteria on the titanium discs were analysed. The supernatant was diluted 1:10 in PBS, 100 μl of the dilution were streaked out on Caso agar plates.

S. aureus BAA44 [6] = experiment: Extracellular infection of osteoblastic MG63 cells, CFU in cell culture supernatant; type: cell-based, Staphylococcus aureus; conditions: 24 h; 100 μg/ml vancomycin, 10 μg/ml rifampin, 100 μg/ml fosfomycin, alone or combined with rifampin; rifampin resistant MRSA strain; FIG. 2
Experimental: Following antibiotics were used: • 100 μg/ml vancomycin • 10 μg/ml rifampin • 100 μg/ml fosfomycin • 10 μg/ml rifampin+100 μg/ml fosfomycin • 10 μg/ml rifampin+100 μg/ml vancomycin.
After incubation for 24 h 100 μl of the cell culture were streaked out on Caso agar plates (Casein-peptone soymeal-peptone broth) directly, e.g. in case of vancomycin, rifampin/fosfomycin and rifampin/vancomycin, or after appropriate dilution, e.g. 1:100 in case of rifampin and fosfomycin, and incubated overnight at 37° C. The supernatant of two wells per group was streaked out.

[7] = test system: S. aureus BAA44 in osteoblastic MG63 cells; experiment: Intracellular infection of osteoblastic MG63 cells after lysostaphin, cell lysis and intracellular CFU count; type: cell-based, Staphylococcus aureus; conditions: 24 h; fosfomycin 50-400 μg/ml, rifampin 2.5-40 μg/ml, mixtures in varying ratios; FIG. 4a-g
Experimental: Only one 24 well plate was handled and the other plates were stored at 4° C. in order to minimize bacterial growth in the lysate.
as §2

S. aureus ATTC 6538P [8] = experiment: Extracellular infection of osteoblastic MG63 cells, CFU in cell culture supernatant; type: cell-based, Staphylococcus aureus; conditions: 24 h; 100 μg/ml gentamicin, 1 μg/ml rifampin, 100 μg/ml fosfomycin disodium, alone or combined with rifampin; FIG. 1
Experimental: as §1
The cell culture supernatant of the osteoblastic MG63 cells was removed with a pipette from the wells. 1 ml containing 1×10^6 S. aureus ATTC 6538P cells was added to each well. Two 24 well plates were incubated with S. aureus ATTC 6538P. The combined osteoblastic cells and bacteria were incubated for 1.5 h at 37° C. under 5% CO2 atmosphere. The presence of bacteria was determined using a microscope.
After 1.5 h the supernatant was removed and the wells were carefully washed twice with 37° C. warm DMEM without additives. It was microscopically checked, if not too many cells were detached during the washing procedure.
After incubation for 24 h, 100 μl of the cell culture supernatant was streaked out on Caso agar plates (Casein-peptone soymeal-peptone broth) directly, e.g. in case of rifampin, fosfomycin, rifampin/fosfomycin and rifmpicin/gentamicin, or after appropriate dilution, e.g. 1:100 in case of gentamicin, and incubated overnight at 37° C. […]

[9] = in vivo; cited from earlier work
S. aureus = conditions: drug concentration-dependent; cited from earlier work
[10] = 2.5 μg/ml rifampin, 50 μg/ml vancomycin
[11] = 100 μg/ml vancomycin, 100 μg/ml gentamicin, 0.01-100 μg/ml rifampin, 1 μg/ml rifampin + 100 μg/ml fosfomycin or gentamicin, FIG. 3a-d

## CN[C@H](CC(C)C)C(=O)N[C@H]1C(=O)N[C@@H](CC(N)=O)C(=O)N[C@H]2C(=O)N[C@H]3C(=O)N[C@H](C(=O)N[C@H](C(=O)O)c4cc(O)cc(O)c4-c4cc3ccc4O)[C@H](O)c3ccc(c(Cl)c3)Oc3cc2cc(c3O[C@@H]2O[C@H](CO)[C@@H](O)[C@H](O)[C@H]2O[C@H]2C[C@](C)(N)[C@H](O)[C@H](C)O2)Oc2ccc(cc2Cl)[C@H]1O [vancomycin]
S. aureus BAA44 [1]; [10]
  effect on CFU per well of intracellular and adhered S. aureus BAA44: several hundred
S. aureus ATTC 6538P [2]; discs washed one time before 1.5 h incubation
  anti-adhesive effect, CFU per titanium disc: anti-adhesive effect after one washing step
S. aureus ATTC 6538P [2]; discs washed three times before 1.5 h incubation
  anti-adhesive effect, CFU per titanium disc: did not reveal any anti-adhesive effect
S. aureus BAA44 [3]; discs washed once
  anti-adhesive effect, CFU per titanium disc: reduced the adhesion
S. aureus BAA44 [3]; discs washed twice
  anti-adhesive effect, CFU per titanium disc: no reduction of bacterial adhesion
[4]; [11]
  metabolic activity of infected osteoblastic MG63 cells: strongly reduced
S. aureus BAA44 [5]
  bactericidal effect of the coating: could not exhibit any bactericidal effect
S. aureus BAA44 [5]; 200 μg/cm^2 vancomycin or 300 μg/cm^2 fosfomycin calcium + 70 μg/cm^2 rifampin, FIG. 5d
  CFU in the supernatant: reduced the bacterial growth in the cell culture supernatant compared to the uncoated control slightly
S. aureus BAA44 [5]; FIG. 5d
  CFU adhered to the titanium disc: more than 50,000 CFU

## CCCCCCCCCC(=O)N[C@@H](Cc1c[nH]c2ccccc12)C(=O)N[C@H](CC(N)=O)C(=O)N[C@@H](CC(=O)O)C(=O)N[C@@H]1C(=O)NCC(=O)N[C@@H](CCCN)C(=O)N[C@@H](CC(=O)O)C(=O)N[C@H](C)C(=O)N[C@@H](CC(=O)O)C(=O)NCC(=O)N[C@H](CO)C(=O)N[C@@H]([C@H](C)CC(=O)O)C(=O)N[C@@H](CC(=O)c2ccccc2N)C(=O)O[C@@H]1C [daptomycin]
S. aureus BAA44 [1]; 1.25 μg/ml daptomycin
  effect on CFU per well of intracellular and adhered S. aureus BAA44: good efficacy
S. aureus BAA44 [1]; 2.5 μg/ml daptomycin
  effect on CFU per well of intracellular and adhered S. aureus BAA44: good efficacy
S. aureus BAA44 [1]; 5 μg/ml daptomycin
  effect on CFU per well of intracellular and adhered S. aureus BAA44: eradicate the infection completely
S. aureus BAA44 [1]; 10 μg/ml daptomycin
  effect on CFU per well of intracellular and adhered S. aureus BAA44: eradicate the infection completely

## CO[C@H]1/C=C/O[C@@]2(C)Oc3c(C)c(O)c4c(O)c(c(/C=N/N5CCN(C)CC5)c(O)c4c3C2=O)NC(=O)/C(C)=C\C=C\[C@H](C)[C@H](O)[C@@H](C)[C@@H](O)[C@@H](C)[C@H](OC(C)=O)[C@@H]1C [rifampin]
S. aureus BAA44 [1]; 2.5 μg rifampin, data not shown
  overgrowth of the MG63 cells with planktonic S. aureus BAA44: prevented efficacious
S. aureus BAA44 [1]; [10]
  effect on CFU per well of intracellular and adhered S. aureus BAA44: less than for vancomycin and daptomycin
S. aureus BAA44 [6]
  effect on CFU of S. aureus BAA44 in cell culture supernatant: hardly any efficacy
[4]; [11]
  metabolic activity of infected osteoblastic MG63 cells: reduce the cell death caused by S. aureus ATTC 6538P drastically
[4]; FIG. 3a
  concentration sufficient in increasing the metabolic activity: 0.006 µg/mL
[7]
  effect on CFU per well of intracellular located S. aureus BAA44: good intracellular potency
S. aureus ATTC 6538P [8]
  effect on CFU of S. aureus ATTC 6538P in cell culture supernatant: moderate

## C[C@@H]1O[C@@H]1P(=O)(O)O [fosfomycin]
[9]
  concentrations allowing for intravenous application: 100 to 400 µg/mL
  concentrations allowing for intravenous application, preferred, in serum: 132 to 297 µg/mL
S. aureus BAA44 [6]
  effect on CFU of S. aureus BAA44 in cell culture supernatant: relatively small
[4]; 10 μg/ml fosfomycin, FIG. 3b
  metabolic activity of infected osteoblastic MG63 cells: increases the metabolic activity only slightly
[4]; 100 μg/ml fosfomycin, FIG. 3b
  metabolic activity of infected osteoblastic MG63 cells: almost doubled
[7]
  effect on CFU per well of intracellular located S. aureus BAA44: good efficacy
S. aureus ATTC 6538P [8]
  effect on CFU of S. aureus ATTC 6538P in cell culture supernatant: moderate

## O=C(O)c1ccccc1O [salicylic acid]
S. aureus
  maximum reduction of S. aureus virulence parameters: approximately 50%

Reference: patent US8921365B2, “Pharmaceutical composition, substrate comprising a pharmaceutical composition, and use of a pharmaceutical composition” (priority 2007, dated 2014)
